Data published in BindingDB's records for doi:10.1016/j.ejmech.2020.112522 (Xuzhou Medical University, 2020).

Key:
[1] = Inhibition of wild type EGFR in human MCF7 cells assessed as cell growth inhibition measured after 72 hrs by Celltiter-Glo luminescent cell viability assay
[2] = Inhibition of wild type EGFR in human HepG2 cells assessed as cell growth inhibition measured after 72 hrs by Celltiter-Glo luminescent cell viability assay
[3] = Inhibition of wild type EGFR in human HT-29 cells assessed as cell growth inhibition measured after 72 hrs by Celltiter-Glo luminescent cell viability assay
[4] = Inhibition of wild type EGFR in human A-431 cells assessed as cell growth inhibition measured after 72 hrs by Celltiter-Glo luminescent cell viability assay

Structure (SMILES): C=CCSSCCC(=O)OCCCOc1cc2ncnc(Nc3cccc(Br)c3)c2cc1OC
- IC50 [1]: 7.31 µM
- IC50 [2]: > 10 µM
- IC50 [3]: > 10 µM
- IC50 [4]: 6.7 µM
